What was measured:
[1] = tested on: human umbilical vein endothelial cells (HUVECs); assay: HUVEC tube formation assay; assay type: cell-based; settings: 18 hours, 5% FCS, 30 μg Cpd II or MP in 1 ml, LY 294002 50 μM
Procedure: Passage 4 (i.e., […]) human umbilical vein endothelial cells (HUVECs), human source lot number 9713 (obtained from ATCC) in 1 ml of endothelial growth medium-2 (EGM-2) (obtained from Cambrex) were mixed with 30 μg of the compound of formula II (Cpd II) in endothelial basal medium-2 (EBM-2) (Cambrex) or 30 μg methylphenidate (MP) in EBM-2. Water (vehicle for the two test compounds) was used as a control, and the PI3 kinase inhibitor, LY 294002 (Sigma), at 50 μM, was included as a positive control. Then, the cells were seeded at 10,000 cells/well into the wells of a plate contained in a tube formation assay kit obtained from BD Biosciences, Rockville, Md. The wells of the plate contained an extracellular matrix protein gel. Fetal calf serum (FCS) (ATCC) was added to a final concentration of 5% to initiate tube formation. Then, the plates were incubated for 18 hours at 37° C. and 5% CO2. Following the incubation, the plates were photographed with a digital camera attached to an inverted microscope (Olympus IMT-2 set at a phase contrast (PC) of 10).
When endothelial cells are cultured on extracellular matrix protein gels in the presence of angiogenic signals, they arrange themselves into structures loosely resembling capillary blood vessels. […]

IL-8 [2] = assay: IL-8 release by LPS-stimulated HUVECs (ELISA); assay type: cell-based, human; settings: 15 μg/ml
Procedure: Passage 4 HUVECs, lot number 9713, were put into the wells of a 48-well tissue culture plate at 20,000 cells/well in 500 μl of EGM-2 complete medium (but without serum or ascorbate) supplemented with ITSS (insulin, transferrin and sodium selenite) (obtained from Sigma). Also, passage 4 HUVECs, human source lot number 7016 (obtained from ATCC), were put into the wells of a 48-well tissue culture plate at 20,000 cells/well in 500 μl of EGM-2 complete medium (but without serum or ascorbate) supplemented with ITSS. The following additives were added to the cells: water (vehicle control) and 15 μg/ml of the compound of formula II (Cpd II). After incubation for 1 hour at 37° C. and 5% CO2, LPS was added to give a final concentration of 200 ng/ml, and the cells were incubated overnight at 37° C. and 5% CO2. After this incubation, the supernatants were collected, and the amount of IL-8 in the supernatants determined by ELISA as described in Example 4.

erythropoietin (EPO) = assay: Erythropoietin (EPO) release from HepG2 cells (ELISA); assay type: cell-based, human; settings: 24 hours
Procedure: HepG2 is a human hepatic cancer cell line, which was obtained from ATCC. HepG2 cells were grown to confluence in 25 cm^2 flasks in IMDM medium containing 10% FCS. Then, the cells were trypsinized as follows. The medium in each flask was aspirated and replaced with 5 ml of 0.025% trypsin/EDTA (Cambrex). The cells were monitored on a microscope until they no longer adhered to the flasks. Then, 5 ml of trypsin neutralizing solution (TNS) (Cambrex) were added to each flask to stop the reaction. The cell suspension was centrifuged at 1000 rpm for 10 minutes, and the supernatants were aspirated. The cells were reconstituted in fresh medium and counted. Then, 4 ml of the cell suspension in medium containing at 1.22×10^6 cells/ml were mixed with an additional 1 ml of medium. Next, 0.5 ml/well of the resulting cell suspension was added to wells in a 24-well culture plate (about 500,000 cells/well). The cells were treated as indicated in Table 5 below and incubated for 24 hours at 37° C., with or without 5% CO2. The supernatants were removed from the wells and centrifuged to remove debris. Next, the supernatants were analyzed for erythropoietin (EPO) production. EPO was measured by ELISA using a kit obtained from R & D Systems, Minneapolis, Minn. (catalog no. DE900) following the manufacturer's instructions.

IL-8 [3] = assay: IL-8 release by PHA-stimulated PBL (ELISA); assay type: cell-based, human; settings: Example 4, GR-192 PBL; 15 μg/ml Cpd II, 10 μM Dex; PHA 2 μg/ml, 96 hours; FIG. 8
Procedure: Whole blood was drawn from GR-192, a normal human volunteer, and processed as described in Example 1 to give heat-inactivated serum and PBL. […] After this incubation, PHA was added to give a final concentration of 2 μg/ml, and the cells were incubated for an additional 96 hours at 37° C., 5% CO2. All cultures were performed in triplicate. Cells were then removed by centrifugation at 1000 rpm for 10 minutes, and the culture medium collected.
To perform the ELISA, matched pairs of antibodies against human IL-8 were purchased from Pierce Biotechnology and Biosource, respectively. ELISA strip well plates were coated with 2 μg/ml of antibody to IL-8 (in phosphate-buffered saline (PBS)) overnight at room temperature. The plates were then blocked using a 4% BSA solution in PBS for one hour, followed by the addition of 50 μl of experimental culture medium per well in duplicate. The plates were incubated at room temperature for one hour and then washed using 50 mM Tris pH 8.0 with 0.1% Tween 20. Then, solutions of 100 ng/ml biotinylated second antibody to IL-8 were made in blocking buffer, and 100 μl were added per well. The plates were incubated for 1 hour and washed again. […] OD was determined using microplate reader with a 450 nm filter.

COC(=O)C(c1ccc(-c2ccccc2)cc1)C1CCCCN1 (centres unmarked) [Cpd II]
tube formation (branching and cellular interaction of endothelial cells) [1]: reduced the amount of branching and cellular interaction
IL-8 (pg/ml) (IL-8 [2]; 7016 HUVECs, LPS 200 ng/ml overnight, LPS only 53.3): Below detection
IL-8 release (IL-8 [2]; 7016 HUVECs, LPS 200 ng/ml): complete eliminated IL-8 release
decrease of IL-8 release (IL-8 [2]; 9713 HUVECs, LPS 200 ng/ml): 90%
Mean Units/ml EPO (erythropoietin (EPO); HepG2, hypoxia (5% CO2), Cpd II 15 μg/ml, LY 294002 25 μM, hypoxia alone 108.39 ± 2.81): 71.60 ± 2.01 Units/ml
release of EPO from the HepG2 cells (erythropoietin (EPO); HepG2, hypoxia, 15 μg/ml): significantly inhibited the release of EPO
IL-8 release induced by PHA (IL-8 [3]): significantly inhibited IL-8 release

COC(=O)C(c1ccccc1)C1CCCCN1 (centres unmarked) [methylphenidate]
tube formation (branching and cellular interaction of endothelial cells) [1]: no observable effect
